Test results published in patent publication US11667675B2, “MASP inhibitory compounds and uses thereof” (Bayer Aktiengesellschaft, priority 2019, dated 2023).
pIC50: −log10 of the molar value. Where a name gives a salt, the structure may show the parent alone. Numbered stars: 1 amine (or outer) side, 2 acyl side, 3 side chain; on linkers, the order of the positions; unused ones are H or OH. Bridge positions count the residues as written; N and C are the ends. Square brackets hold non-standard residues; d marks the D form. Peptide text beside a SMILES is read from it. * marks the point of attachment. X1 = O=C(C1[C@H]2CCCC[C@H]2C[C@H]1C(=O)[*:2])[C@@H]1CCCN1[*:1]; Oic = O=C(O)[C@@H]1C[C@@H]2CCCC[C@@H]2N1; Pen = CC(C)(S)[C@H](N)C(=O)O; X2 = N[C@@H](CN*)C(=O)O; Sar = CNCC(=O)O

How the values were obtained:
Conditions in all cases: average IC50
human MASP1 = target: T1, human MASP1 (Homo sapiens, UniProt P48740); assay: Biochemical human MASP1 assay (FRET substrate)
T1 construct: Ig-kappa secretion signal (N, cleaved yes); made in house; host or cells: HEK293 (ATCC No. CRL-1573)
T1 sequence (P48740 297-448): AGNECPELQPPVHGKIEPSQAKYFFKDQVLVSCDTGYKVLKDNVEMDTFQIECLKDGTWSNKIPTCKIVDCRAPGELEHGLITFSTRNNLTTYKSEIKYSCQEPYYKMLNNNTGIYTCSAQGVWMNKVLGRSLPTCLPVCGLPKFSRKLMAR
T1 sequence (P48740 449-699): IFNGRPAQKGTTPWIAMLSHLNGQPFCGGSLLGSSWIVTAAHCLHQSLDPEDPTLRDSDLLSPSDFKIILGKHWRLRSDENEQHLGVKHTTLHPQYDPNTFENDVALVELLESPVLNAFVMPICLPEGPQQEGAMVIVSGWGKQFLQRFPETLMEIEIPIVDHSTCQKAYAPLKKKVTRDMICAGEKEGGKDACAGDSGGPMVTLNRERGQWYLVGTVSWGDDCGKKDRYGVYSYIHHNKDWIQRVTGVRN
Description: (§1) 2.1 Recombinant Expression and Protein Production of Recombinant Human MASP1 and MASP2 Active Proteases.
(§2) The MASP1 or MASP2 expression vectors were transfected into the HEK293 (ATCC No. CRL-1573) cell line using Lipofectamine LTX® Reagent (Thermo-Fischer), as described by the manufacturer. […] The MASP1 and MASP2 proteins were purified from the conditioned media by affinity chromatography on Ni-NTA Superflow resin (Qiagen) as described by the manufacturer.
2.2 Biochemical Human MASP1 Assay
(§3) Recombinant human MASP1 enzyme produced in the HEK 293 cells was diluted in the reaction buffer (50 mM HEPES pH 8,0; 100 mM NaCl; 0.01% CHAPS; 0.5 mM Gluthathione) to the concentration of 20 nM and 25 μl was transferred into each single well of 384-well white microtiter plate (Greiner Bio One 781075). 1 μl of the inhibitor compound solution (dissolved in DMSO, at the corresponding concentration) or pure DMSO as a control was added to the same wells. […] The microtiter plate was incubated for 60-120 min at the temperature of 32 C. The increase of fluorescence intensity was measured in appropriate fluorescence plate reader (e.g. TECAN Ultra) using excitation wavelength of 320 nm and emission wavelength of 420 nm. IC50 values were calculated from percentage of inhibition of human MASP1 activity as a function of test compound concentration.

human MASP2 = target: T2, human MASP2 (Homo sapiens, UniProt O00187); assay: Biochemical human MASP2 assay (FRET substrate)
T2 construct: Ig-kappa secretion signal (N, cleaved yes); made in house; host or cells: HEK293 (ATCC No. CRL-1573)
Description: as §1, §2
2.3 Biochemical Human MASP2 Assay
as §3, with “MASP2” for “MASP1”, “340” for “320”, “490” for “420”

rat C3-[…] = assay: C3 deposition assay, rat serum on mannan-coated plates; assay type: biochemical
Protocol: 3. C3 Deposition Assay (Human, Rat, Mouse, Dog, Mini-Pig)
The C3 deposition assay was conducted essentially as described (reference). Multi well plates (Greiner-Nunc 384 Maxi Sorp #464718) were coated over night with Mannan from Saccharomyces cerevisiae (Sigma M7504, 10 μg/mL in 0.05 M carbonate-bicarbonate buffer, pH 9.6) at 4° C. Wells were washed three times with TBS and subsequently incubated for 2 hours with 50 μL of 1% bovine serum albumin (BSA) in Tris-buffered saline (TBS) at 37° C. in order to block non-specific binding. After this step and each of the following incubation steps wells were washed three times with C3 wash buffer (TBS; 0.05% Tween 20; 5 mM CaCl2). […] When appropriately developed the color reaction was stopped by addition of 25 μL of stop solution (Sigma S5814) and quantified on a photometer by measuring absorption at a wavelength of 450 nm. Antibodies were diluted in C3 wash buffer supplemented with 0.5% BSA.

T2 sequence (O00187 297-444): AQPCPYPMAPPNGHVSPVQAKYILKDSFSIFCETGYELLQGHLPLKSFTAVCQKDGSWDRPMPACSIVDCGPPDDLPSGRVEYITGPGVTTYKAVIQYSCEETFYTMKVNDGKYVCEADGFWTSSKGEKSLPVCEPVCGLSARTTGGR
T2 sequence (O00187 445-686): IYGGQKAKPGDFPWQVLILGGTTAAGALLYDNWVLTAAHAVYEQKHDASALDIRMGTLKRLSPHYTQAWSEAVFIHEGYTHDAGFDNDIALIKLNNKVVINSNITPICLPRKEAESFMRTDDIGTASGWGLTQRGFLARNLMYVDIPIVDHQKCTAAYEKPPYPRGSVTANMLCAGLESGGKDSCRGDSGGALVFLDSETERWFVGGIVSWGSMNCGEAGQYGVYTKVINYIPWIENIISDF

SMILES | pIC50 (human MASP1) | pIC50 (human MASP2) | pIC50 (rat C3-[…])
CC[C@H](C)[C@H](NC(=O)[C@H](C)NC)C(=O)N[C@H]1CSSC(C)(C)[C@@H](C(=O)N[C@H](C(=O)N2CCC[C@H]2C(N)=O)[C@@H](C)CC)NC(=O)[C@H]([C@@H](C)CC)NC(=O)[C@@H]2C[C@@]3(CN2C(=O)[C@@H]2CCCN2C(=O)[C@@H](CC(C)(C)C)NC(=O)[C@H](CO)NC(=O)[C@H](CCCNC(=N)N)NC(=O)[C@H](CO)NC1=O)CC3(F)F (single isomer, unassigned; enantiomer 1) [Example 443] | 9.11 | 7.13 | –
CC[C@H](C)[C@H](NC(=O)CNC)C(=O)N[C@H]1CSSC(C)(C)[C@@H](C(=O)N[C@H](C(=O)N2CCC[C@H]2C(N)=O)[C@@H](C)CC)NC(=O)[C@H]([C@@H](C)CC)NC(=O)[C@@H]2C[C@@H]3CCCC[C@@H]3C2C(=O)[C@@H]2CCCN2C(=O)[C@H](CC(C)C)NC(=O)[C@H](CO)NC(=O)[C@H](CCCNC(=N)N)NC(=O)[C@H](CO)NC1=O (stereo partly shown) [Example 67, ((N-Me)G)-IC+SRSLP-(Oic)-I-(Pen)+IP-NH2 (HCl Salt)] (H-[Sar]ICSRSL[X1]I[Pen]IP-NH2; disulfide 3-10) | 8.66 | 7.37 | –
CC[C@H](C)[C@H](NC(=O)CNC)C(=O)N[C@H]1CSSC(C)(C)[C@@H](C(=O)N[C@H](C(=O)N2CCC[C@H]2C(N)=O)[C@@H](C)CC)NC(=O)[C@H]([C@@H](C)CC)NC(=O)[C@@H]2C[C@@H]3CCCC[C@@H]3N2C(=O)[C@@H]2CCCN2C(=O)[C@H](CC(C)C)NC(=O)[C@H](CO)NC(=O)[C@H](CCCNC(=N)N)NC(=O)[C@H](CO)NC1=O [Example 109, ((N-Me)G)-IC+SRSLP-(Oic)-I-(Pen)+IP-NH2] (H-[Sar]ICSRSLP[Oic]I[Pen]IP-NH2; disulfide 3-11) | 8.54 | 7.16 | –
[2H][C@@H]1[C@H]([2H])CN2C(=O)[C@H](CC(C)C)NC(=O)[C@H](CO)NC(=O)[C@H](CCCNC(=N)N)NC(=O)[C@H](CO)NC(=O)[C@@H](NC(=O)[C@@H](NC(=O)[C@H](C)N)[C@@H](C)CC)CSSC(C)(C)[C@@H](C(=O)N[C@H](C(=O)N3CCC[C@H]3C(=O)N[C@@H](CC(=O)O)C(=O)O)[C@@H](C)CC)NC(=O)[C@H]([C@@H](C)CC)NC(=O)[C@@H]3C[C@@H]4CCCC[C@@H]4N3C(=O)[C@H]12 [Example 142, N-[(1R,2S,6S,9S,12S,15S,18R,23R,26S,28aS,35aS)-18-[(L-alanyl-L-isoleucyl)amino]-26-[(2S)-butan-2-yl]-12-(3-carbamimidamidopropyl)-9,15-bis(hydroxymethyl)-22,22-dimethyl-6-(2-methylpropyl)-5,8,11,14,17,25,28,35-octaoxo(1,2-^2H2)dotriacontahydro-1H,5H,22H-pyrrolo[2′,1′:13,14][1,2,5,8,11,14,17,20,23,26]dithiaoctaazacyclononacosino[11,10-a]indole-23-carbonyl]-L-isoleucyl-L-prolyl-L-aspartic Acid] | 8.67 | 6.90 | 6.33
CC[C@H](C)[C@H](NC(=O)[C@H](C)N)C(=O)N[C@H]1CSSC[C@@H](C(=O)N[C@H](C(=O)N2CCC[C@H]2C(=O)N[C@@H](CC(=O)O)C(N)=O)[C@@H](C)CC)N(C)C(=O)[C@H]([C@@H](C)CC)NC(=O)[C@@H]2C[C@@H]3CCCC[C@@H]3N2C(=O)[C@@H]2CCCN2C(=O)[C@H](CC(C)C)NC(=O)[C@H](CO)NC(=O)[C@H](CCCNC(=N)N)NC(=O)[C@H](CO)NC1=O [Example 185, AIC+SRSLP-(Oic)-I-((N-Me)C)+IPD-NH2] | 8.32 | 6.61 | 6.63
CC[C@H](C)[C@H](NC(=O)CNC)C(=O)N[C@H]1CSSC(C)(C)[C@@H](C(=O)N[C@H](C(=O)N2CCC[C@H]2C(=O)N[C@@H](CC(=O)O)C(=O)N[C@@H](CC(=O)O)C(=O)O)[C@@H](C)CC)NC(=O)[C@H]([C@@H](C)CC)NC(=O)[C@@H]2C[C@@H]3CCCC[C@@H]3N2C(=O)[C@@H]2CCCN2C(=O)[C@H](CC(C)C)NC(=O)[C@H](CO)NC(=O)[C@H](CCCNC(=N)N)NC(=O)[C@H](CO)NC1=O [Example 466, ((N-Me)G)-IC+SRSLP-(Oic)-I-(Pen)+IPDD-OH] (H-[Sar]ICSRSLP[Oic]I[Pen]IPDD-OH; disulfide 3-11) | 9.14 | 7.40 | –
CC[C@H](C)[C@H](NC(=O)CNC)C(=O)N[C@H]1CSSC(C)(C)[C@@H](C(=O)N[C@H](C(=O)N2CCC[C@H]2C(=O)NC[C@H](N)C(=O)O)[C@@H](C)CC)NC(=O)[C@H]([C@@H](C)CC)NC(=O)[C@@H]2C[C@@H]3CCCC[C@@H]3N2C(=O)[C@@H]2CCCN2C(=O)[C@H](CC(C)C)NC(=O)[C@H](CO)NC(=O)[C@H](CCCNC(=N)N)NC(=O)[C@H](CO)NC1=O [Example 467] (H-[Sar]ICSRSLP[Oic]I[Pen]IP-X2; disulfide 3-11) | 8.18 | 7.26 | –
